Results on four compounds are retold here after patent US20240067693A1, “POLYPEPTIDES AND USES THEREOF” (MEDIMMUNE LIMITED, priority 2020, published 2024).

Numbered stars: 1 amine (or outer) side, 2 acyl side, 3 side chain; on linkers, the order of the positions; unused ones are H or OH. Bridge positions count the residues as written; N and C are the ends. Square brackets hold non-standard residues; d marks the D form. Side chains are listed from the residue outwards. Peptide text beside a SMILES is read from it. * marks the point of attachment. C18 diacid = O=C(O)CCCCCCCCCCCCCCCCC(=O)*; γGlu = O=C(O)[C@H](CCC(=O)[*:2])N[*:1]; αMeS = C[C@](N)(CO)C(=O)O; Dab = NCC[C@H](N)C(=O)O; Aib = CC(C)(N)C(=O)O

The target of assay [1] is T1, human amylin receptor (calcitonin receptor co-expressed with receptor activity modifying protein, RAMP3) (hAMYR3) (Homo sapiens, UniProt O60896+P30988).
T1 construct: expressed in transfected cells
T1 sequence (P30988 25-474): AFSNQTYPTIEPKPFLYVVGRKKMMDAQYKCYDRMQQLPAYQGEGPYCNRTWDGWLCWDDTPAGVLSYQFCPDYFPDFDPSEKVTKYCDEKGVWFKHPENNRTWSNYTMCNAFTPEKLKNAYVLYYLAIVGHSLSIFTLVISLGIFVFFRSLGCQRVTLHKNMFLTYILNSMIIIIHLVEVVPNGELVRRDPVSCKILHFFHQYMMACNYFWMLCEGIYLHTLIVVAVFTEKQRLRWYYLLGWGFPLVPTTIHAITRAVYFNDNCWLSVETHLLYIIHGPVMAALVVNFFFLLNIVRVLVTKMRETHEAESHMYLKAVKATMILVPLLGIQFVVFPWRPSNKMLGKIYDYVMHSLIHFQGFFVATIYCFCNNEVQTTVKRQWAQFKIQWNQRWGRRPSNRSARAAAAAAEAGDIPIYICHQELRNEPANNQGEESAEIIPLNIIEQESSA
T1 sequence (O60896 24-148 partner): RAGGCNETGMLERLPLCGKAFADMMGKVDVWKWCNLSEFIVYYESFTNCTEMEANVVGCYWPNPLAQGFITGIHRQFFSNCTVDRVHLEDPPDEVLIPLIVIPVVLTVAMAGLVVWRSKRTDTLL
Put plainly: cAMP production in 1321N1 cells with stable recombinant expression of human amylin receptor (hAMYR3). Format: cell-based. Particulars: for Ratio (selectivity hAMYR vs hCTR, ratio of EC50 values at the two receptors): EC50 hCTR / EC50 hAMYR3; for EC50: cAMP, 1321N1 cells, assay buffer with 0.1% BSA, read-out: EC50 (pM) hAMYR3. As to the method:
(§1) The functional activities of lipidated pramlintide analogue peptides, such as cAMP production, were tested in 1321N1 cell line with stable recombinant expression of human calcitonin receptor (hCTR) or human amylin receptor (calcitonin receptor co-expressed with receptor activity modifying protein, RAMP3) (hAMYR3) or HEK cells with stable recombinant expression of rat calcitonin receptor (rat CTR) or rat amylin receptor (calcitonin receptor co-expressed with receptor activity modifying protein, RAMP3) (Rat AMYR3).
(§2) Cryopreserved cell stock was thawed rapidly in a water-bath, suspended in assay buffer (0.1% BSA (Sigma # A3059) in HBSS (Sigma # H8264) with 25 mM HEPES, pH 7.4 and containing 0.5 mM IB MX (Sigma# 17018)) and spun at 240×g for 5 minutes. Cells were re-suspended in assay buffer at a batch-dependent optimized concentration (e.g. hCTR cells at 0.125×10^5 cells/mL, hAMYR3 cells at 0.125×10^5 cells/mL, rat CTR cells at 1x10^5 cells/mL, rat AMYR3 at 2×10^5 cells/mL).
(§3) The test peptide stock was prepared in DMSO and diluted in assay buffer to reach stated concentrations and transferred in duplicates into a 384-black shallow well microtitre assay plate (Corning # 3676). Cells were added to the assay plate, incubated at room temperature for 30 minutes and the cAMP level measured using cAMP dynamic 2 HTRF kit (Cisbio, Cat # 62AM4PEJ), following the two step protocol as per manufacturer's recommendations. The plates were read on an Envision (Perkin Elmer) using excitation wavelength of 320 nm and emission wavelengths of 620nm & 665 nm.
(§4) Data was transformed to % Delta F as described in the manufacturer's guidelines and analyzed as percent activation of maximal amylin or calcitonin effect by 4-parameter logistic fit to determine EC50 values. The selectivity of a peptide to hAMYR vs hCTR is defined as a ratio of EC50 values at the two receptors.

Assay [2] has as its target T2, human calcitonin receptor (hCTR) (Homo sapiens, UniProt P30988).
T2 construct: expressed in transfected cells
T2 sequence (P30988 25-474): T1 sequence (P30988 25-474)
The assay is described as follows: cAMP production in 1321N1 cells with stable recombinant expression of human calcitonin receptor (hCTR). Format: cell-based. The following applies: cAMP, 1321N1 cells, assay buffer with 0.1% BSA; read-out: EC50 (pM) hCTR. As to the method:
as §1, §2, §3, §4

Consider `CC[C@H](C)[C@H](NC(=O)[C@@H]1CCCN1C(=O)CNC(=O)[C@H](Cc1ccccc1)NC(=O)[C@H](CC(N)=O)NC(=O)[C@H](CC(N)=O)NC(=O)[C@](C)(CO)NC(=O)[C@H](CO)NC(=O)[C@H](Cc1c[nH]cn1)NC(=O)[C@@H](NC(=O)[C@H](CC(C)C)NC(=O)[C@H](Cc1ccccc1)NC(=O)[C@H](CC(N)=O)NC(=O)[C@H](C)NC(=O)[C@H](CC(C)C)NC(=O)[C@H](CCCNC(=N)N)NC(=O)[C@H](CCC(N)=O)NC(=O)[C@@H](NC(=O)[C@H](C)NC(=O)[C@@H]1CSSC[C@H](NC(=O)[C@@H](N)CCCCNC(=O)CC[C@H](NC(=O)CC[C@H](NC(=O)CCCCCCCCCCCCCCCCC(=O)O)C(=O)O)C(=O)O)C(=O)N[C@@H](CC(N)=O)C(=O)N[C@@H]([C@@H](C)O)C(=O)N[C@@H](C)C(=O)N[C@@H]([C@@H](C)O)C(=O)N1)[C@@H](C)O)C(C)C)C(=O)N[C@@H](CC(C)C)C(=O)N1CCC[C@H]1C(=O)N1CCC[C@H]1C(=O)N[C@H](C(=O)N[C@@H](CC(N)=O)C(=O)N[C@H](C(=O)NCC(=O)N[C@@H](CO)C(=O)N[C@@H](CC(N)=O)C(=O)N[C@H](C(=O)N[C@@H](Cc1ccc(O)cc1)C(N)=O)[C@@H](C)O)C(C)C)[C@@H](C)O` [Peptide 22, K(γE-γE-C18diacid)[CNTATC]ATQRLANFLVHS(αMeSer)NNFGPILPPTNVGSNTY-amide] (H-K([γGlu-γGlu-C18 diacid])CNTATCATQRLANFLVHS[αMeS]NNFGPILPPTNVGSNTY-NH2; disulfide 2-7; N-terminus assumed), for which, in assay [1], the “Ratio (selectivity hAMYR vs hCTR, ratio of EC50 values at the two receptors)” value is reported as 40 and the EC50 stood at 162 pM. Also, in assay [2], the 50% effective concentration (EC50) turned out to be 6540 pM.
Taken in the same sequence, the figures for `CC[C@H](C)[C@H](NC(=O)[C@@H]1CCCN1C(=O)CNC(=O)[C@H](Cc1ccccc1)NC(=O)[C@H](CC(N)=O)NC(=O)C(C)(C)NC(=O)[C@H](CO)NC(=O)[C@H](CO)NC(=O)[C@H](Cc1c[nH]cn1)NC(=O)[C@@H](NC(=O)[C@H](CC(C)C)NC(=O)[C@H](Cc1ccccc1)NC(=O)[C@H](CC(N)=O)NC(=O)[C@H](C)NC(=O)[C@H](CC(C)C)NC(=O)[C@H](CCCNC(=N)N)NC(=O)[C@H](CCC(N)=O)NC(=O)[C@@H](NC(=O)[C@H](C)NC(=O)[C@@H]1CSSC[C@H](NC(=O)[C@@H](N)CCCCNC(=O)CC[C@H](NC(=O)CC[C@H](NC(=O)CCCCCCCCCCCCCCCCC(=O)O)C(=O)O)C(=O)O)C(=O)N[C@@H](CC(N)=O)C(=O)N[C@@H]([C@@H](C)O)C(=O)N[C@@H](C)C(=O)N[C@@H]([C@@H](C)O)C(=O)N1)[C@@H](C)O)C(C)C)C(=O)N[C@@H](CC(C)C)C(=O)N1CCC[C@H]1C(=O)N1CCC[C@H]1C(=O)N[C@H](C(=O)N[C@@H](CCCNC(=N)N)C(=O)N[C@H](C(=O)NCC(=O)N[C@@H](CO)C(=O)N[C@@H](CC(N)=O)C(=O)N[C@H](C(=O)N[C@@H](Cc1ccc(O)cc1)C(N)=O)[C@@H](C)O)C(C)C)[C@@H](C)O` [Peptide 67, K(γE-γE-C18diacid)[CNTATC]ATQRLANFLVHSS(Aib)NFGPILPPTRVGSNTY-amide] (H-K([γGlu-γGlu-C18 diacid])CNTATCATQRLANFLVHSS[Aib]NFGPILPPTRVGSNTY-NH2; disulfide 2-7; N-terminus assumed) were 30, 132 pM and 4010 pM.
Taken in the same sequence, the figures for `CC[C@H](C)[C@H](NC(=O)[C@@H]1CCCN1C(=O)CNC(=O)[C@H](Cc1ccccc1)NC(=O)[C@H](CC(N)=O)NC(=O)[C@H](CC(N)=O)NC(=O)[C@H](CO)NC(=O)[C@H](CO)NC(=O)[C@H](Cc1c[nH]cn1)NC(=O)[C@@H](NC(=O)[C@H](CC(C)C)NC(=O)[C@H](Cc1ccccc1)NC(=O)[C@H](CCN)NC(=O)[C@H](C)NC(=O)[C@H](CC(C)C)NC(=O)[C@H](CCCNC(=N)N)NC(=O)[C@H](CCC(N)=O)NC(=O)[C@@H](NC(=O)[C@H](C)NC(=O)[C@@H]1CSSC[C@H](NC(=O)[C@H](CCCCN)NC(=O)[C@@H](N)CCCCNC(=O)CC[C@H](NC(=O)CCCCCCCCCCCCCCCCC(=O)O)C(=O)O)C(=O)N[C@@H](CC(N)=O)C(=O)N[C@@H]([C@@H](C)O)C(=O)N[C@@H](C)C(=O)N[C@@H]([C@@H](C)O)C(=O)N1)[C@@H](C)O)C(C)C)C(=O)N[C@@H](CC(C)C)C(=O)N1CCC[C@H]1C(=O)N1CCC[C@H]1C(=O)N[C@H](C(=O)N[C@@H](CCC(=O)O)C(=O)N[C@H](C(=O)NCC(=O)N[C@@H](CO)C(=O)N[C@@H](CC(N)=O)C(=O)N[C@H](C(=O)N[C@@H](Cc1ccc(O)cc1)C(N)=O)[C@@H](C)O)C(C)C)[C@@H](C)O` [Peptide 34] (H-K([γGlu-C18 diacid])KCNTATCATQRLA[Dab]FLVHSSNNFGPILPPTEVGSNTY-NH2; disulfide 3-8; N-terminus assumed) were 20, 877 pM and 17700 pM.
Regarding `CC[C@H](C)[C@H](NC(=O)[C@@H]1CCCN1C(=O)CNC(=O)[C@H](Cc1ccccc1)NC(=O)[C@H](CC(N)=O)NC(=O)[C@H](CC(N)=O)NC(=O)[C@H](CO)NC(=O)[C@H](CO)NC(=O)[C@H](Cc1c[nH]cn1)NC(=O)C(C)(C)NC(=O)[C@H](CC(C)C)NC(=O)[C@H](Cc1ccccc1)NC(=O)[C@H](CC(N)=O)NC(=O)[C@H](C)NC(=O)[C@H](CC(C)C)NC(=O)[C@H](CCCNC(=N)N)NC(=O)[C@H](CCC(N)=O)NC(=O)[C@@H](NC(=O)[C@H](C)NC(=O)[C@@H]1CSSC[C@H](NC(=O)[C@H](CCCCN)NC(=O)[C@@H](N)CCCCNC(=O)CC[C@H](NC(=O)CCCCCCCCCCCCCCCCC(=O)O)C(=O)O)C(=O)N[C@@H](CC(N)=O)C(=O)N[C@@H]([C@@H](C)O)C(=O)N[C@@H](C)C(=O)N[C@@H]([C@@H](C)O)C(=O)N1)[C@@H](C)O)C(=O)N[C@@H](CC(C)C)C(=O)N1CCC[C@H]1C(=O)NC(C)(C)C(=O)N[C@H](C(=O)N[C@@H](CC(N)=O)C(=O)N[C@H](C(=O)NCC(=O)N[C@@H](CO)C(=O)N[C@@H](CC(N)=O)C(=O)N[C@H](C(=O)N[C@@H](Cc1ccc(O)cc1)C(N)=O)[C@@H](C)O)C(C)C)[C@@H](C)O` [Peptide 97, K(γE-C18diacid)K[CNTATC]ATQRLANFL(Aib)HSSNNFGPILP(Aib)TNVGSNTY-amide] (H-K([γGlu-C18 diacid])KCNTATCATQRLANFL[Aib]HSSNNFGPILP[Aib]TNVGSNTY-NH2; disulfide 3-8; N-terminus assumed), the “Ratio (selectivity hAMYR vs hCTR, ratio of EC50 values at the two receptors)” value in assay [1] is given as 1. The EC50 in assay [1] was 684 pM; in assay [2] it was 944 pM.
